# Measured values reported in patent EP4349333A1, “USE OF AMINOPYRIDINE, IN PARTICULAR AMIRAMPRIDINE, IN THE TREATMENT OF VIRALLY ASSOCIATED FATIGUE” (Böhmeke, Thomas, priority 2022, dated 2024).
# What was measured:
# [1] = system: Lambert-Eaton-Myasthenie-Syndrom (LEMS); conditions: cited from earlier work
# [2] = system: Fatigue-Symptomatik nach SARS-COV-2-Infektion; experiment: Double-blind withdrawal trial, verum and placebo for 3 days each; type: in vivo, Patienten; conditions: Pat. 2.1; on Amifampridin at start of verum phase (4 x 5 mg per day, days 1-3)
# Experimental: (§1) In den nachfolgend genannten Anwendungsbeispielen wurde 3,4-Diaminopyridin Amifamprindin (Formulierung als Fertigarzneimittel) verabreicht. Im Rahmen der doppelt-blind Studie wurden gleich aussende Kapseln mit Amifampridin oder Placebo apothekenseitig verblindet zubereitet, wobei nur apothekenseitig bekannt war welche Kapseln Wirkstoff oder Placebo enthielten.
# Bei Pat. 2.1 und 2.2 waren zur Rekonvaleszenz eine Dauermedikation mit jeweils 20 mg Amifampridin pro Tag erforderlich und boten damit Voraussetzungen für einen doppelt-blinden Auslassversuch über jeweils 3 Tage.
# Pat. 2.1 mit Verum an Tagen 1-3, nachfolgend Placebo an den Tagen 4-6: Pat. (Pat. 2.1) mit Bell-Score 90 begann bereits mit Amifampridin, wie vorstehend beschrieben, und setzte diese mit Blister mit 6 Tagesdosen je Tag ein Fach mit Kapseln für 3 Tage mit je 4 mal 5 mg Amifampridin fort. Die Dosierung betrugt jeweils für 3 Tage Placebo mit je 4mal Placebo-Kapseln für Patient 1 und 2 (Verum und Placebo).
# [3] = system: Fatigue-Symptomatik nach Covid-Infektion; experiment: Off-label case reports (Fall 1-3) in fatigue after Covid infection; type: in vivo, Patienten
# Description: as §1
# Ruhebedürfnis bis zu 20 Stunden pro Tag (brain fog) sowie ausgeprägter Konzentrationsschwäche.
# Im Fall 2 wird eine Patientin beschrieben, die ebenfalls unter einer gravierenden Fatigue-Symptomatik nach Covid-Infektion 5/22 litt, eine zuzuordnende neurologische oder internistische Grunderkrankung bestand nicht. […] Die nachfolgenden Labor- und EKG-Kontrollen zur Erfassung substanzassoziierter Komplikationen waren unauffällig.
# Im Fall 3 wird ein Patient beschrieben, der nach zweimaliger Covid-Infektion unter Fatigue-Symptomatik mit einem Schlafbedürfnis bis zu 2 x 9 Stunden pro Tag litt.
# [4] = system: Fatigue-Symptomatik nach SARS-COV-2-Infektion; experiment: Patients 2.1 to 2.5: Bell-Score and sleep need with Amifampridin (Fig. 1 and 2); type: in vivo, Patienten
# Description: (§2) Die Bell-score (oder skala) ist ein Massstab der Behinderung bei ME & CFS. Auch für Long Covid-Patient:innen ist sie geeignet. Die Bell-Skala ist individuell, da jeder Patientinnen eine unterschiedliche Belastungsintoleranz aufweist und das Erleiden von schweren Symptomen in Ruhe verhältnismässig unterschiedlich sein kann.
# Die nachfolgenden Dosierungen der Patienten 2.1 bis 2.5 und die veränderten Bell-Sore Werte sowie das Schlafbedürfnis in Stunden sind in den Figuren 1 und 2 dargestellt (Fig. 1 Bells-Sore mit und ohne Amifampridin, Patienten 2.1 bis 2.5, Fig. 2: kumulierte Schlafzeit in 24 h).
# [5] = system: Fatigue-Symptomatik bei Post-Covid-Syndrom; experiment: Further study / case series Pat. 1-5: Bell-Score and sleep need in post-Covid syndrome; type: in vivo, Patienten
# Description: as §2
# Es wurde eine weitere Studie an einer Patientengruppe durchgeführt.
# Die Prävalenz eines Post-Covid-Syndroms (PCS) liegt bei 10-15 % nach SARS-COV-2-Infektion, neben spezifischen Organerkrankungen treten vielfältige funktionelle Beschwerden auf, vorrangig eine Fatigue-Symptomatik. Diese ist gekennzeichnet durch persistierende Müdigkeit, Schwäche, kognitive Defizite sowie vermehrtem Schlafbedürfnis. In dieser Studie bzw. Fallserie wird der Effekt von Amifampridin bei Patienten mit PCS beschrieben, die unter unphysiologisch gesteigertem Schlafbedürfnis sowie eingeschränkter Kognition litten. Zur Evaluation wurde der Bell-Score verwendet, der auf die Einschränkung der Vigilanz, körperlichen Belastbarkeit und Berufstätigkeit fokussiert.
# [6] = system: Fatigue-Symptomatik bei MS-Patienten; conditions: described in the literature; cited from earlier work
# [7] = Pat. 2.5 (LEMS), initial 3 x 5 mg
# [8] = Pat. 5 (LEMS), 3 or 4 x 5 mg as daily dose
compound,measurement,setting,value
"Nc1ccncc1N [Amifampridine Phosphate (Firdapse), Amifampridine Phosphate]",koinzidente Fatigue,"[1]; LEMS, 20 bis 80 mg als Tagesdosen, J Clin Neuromuscul Dis. 2019",Besserung einer koinzidenten Fatigue
"Nc1ccncc1N [Amifampridin, Pyridin-3,4-diamin]",Bell-Score,[2],90
same,muskuläre Defizite,[3]; Fall 1,umgehende Besserung
same,Fatigue-Symptomatik,"[3]; Fall 1, since Covid infection, sleep/rest need up to 20 Stunden pro Tag before",schlagartige Besserung
same,Labor- und EKG-Kontrollen zur Erfassung substanzassoziierter Komplikationen,[3]; Fall 2,unauffällig
same,Fatigue-Symptomatik,"[3]; Fall 2, 5 mg",komplette Besserung
same,Konzentrationsfähigkeit,"[3]; Fall 2, 5 mg",vollständiger Restitution
same,zuzuordnende Nebenwirkung,"[3]; Fall 2, 5 mg",leichte periorale Parästhesien
same,Fatigue,"[3]; Fall 2, Tagesdosis 3 x 5 mg",sistiert die vorbestehende Fatigue vollständig
same,Konzentrationsfähigkeit,"[3]; Fall 3, 5 mg",schlagartigen Besserung
same,Nebenwirkung (periorale Parästhesien),"[3]; Fall 3, 5 mg",transiente periorale Parästhesien mit sehr geringer Intensität
same,Schlaf- und Ruhebedürfnis,"[3]; Fall 3, 5 mg",physiologischem
same,Schlafbedürfnis,"[4]; Pat. 2.1, after single intake of 5 mg, before 12",7 Stunden / 24h
same,Bell-Score,"[4]; Pat. 2.1, after single intake of 5 mg, before 20 to 40",100
same,duration of the effect,"[4]; Pat. 2.2, 5 mg",~36 Stunden
same,Schlafbedürfnis,"[4]; Pat. 2.2, after 5 mg, before 11-12",7-9 Stunden
same,Bell-Score,"[4]; Pat. 2.2, after 5 mg, before 40",80
same,Vigilanz,"[4]; Pat. 2.3, after 5 mg",uneingeschränkte Vigilanz
same,Schlafbedürfnis,"[4]; Pat. 2.3, after 5 mg, before 12","7,5 Stunden /24 h"
same,Bell-Score,"[4]; Pat. 2.3, after 5 mg, before 40",100
same,Bell-Score in Bezug auf die muskulären Defizite,"[4]; Pat. 2.5 (LEMS), 3 x 20 mg plus 5 mg if needed (60 to 70 mg per day)",ca. 20
same,Fatigue,[4]; [7],sistierte die Fatigue
same,muskuläre Belastbarkeit,[4]; [7],gebesserte muskuläre Belastbarkeit
same,Bell-Score,"[4]; Pat. 2.5 (LEMS), initial 3 x 5 mg, before 10",80
same,Schlafbedürfnis,"[4]; Pat. 2.5 (LEMS), initial 3 x 5 mg, before 16-18",8-9 Stunden / 24h
same,Bell-Score,"[4]; Patientin 2.4, after 5 mg, before 20, Post-Covid-Myokarditis",50
same,Schlafbedürfnis,"[5]; Pat. 1, after 3 intakes of 5 mg over 24 h, before 12",7 Stunden / 24h
same,Bell-Score,"[5]; Pat. 1, after 3 intakes of 5 mg over 24 h, before 20 to 40",100
same,Vigilanz,"[5]; Pat. 2, after 3 doses of 5 mg",uneingeschränkte Vigilanz
same,Schlafbedürfnis,"[5]; Pat. 2, after 3 doses of 5 mg, before 12","7,5 Stunden /24 h"
same,Bell-Score,"[5]; Pat. 2, after 3 doses of 5 mg, before 40",100
same,Schlafbedürfnis,"[5]; Pat. 3, after one intake of 5 mg, before 11 to 12",7-9 Stunden
same,Bell-Score,"[5]; Pat. 3, after one intake of 5 mg, before 40",100
same,duration of the effect,"[5]; Pat. 3, one intake of 5 mg",~36 Stunden
same,Bell-Score,"[5]; Pat. 4, 3 x 5 mg over 24 h, before 20, Post-Covid-Myokarditis",50
same,Fatigue,[5]; [8],sistierte die Fatigue
same,muskuläre Belastbarkeit,[5]; [8],gebesserte muskuläre Belastbarkeit
same,Schlafbedürfnis,"[5]; Pat. 5 (LEMS), 3 or 4 x 5 mg as daily dose, before 16 to 18",8-9 Stunden / 24h
same,Fatigue-Symptomatik,"[5]; patient group of the further study, Post-Covid-Syndrom",reduzierte Fatigue-Symptomatik
same,koindizierte Fatigue,"[1]; LEMS-Patienten, stated as known",Besserung
Nc1ccncc1 [Fampridin],begleitende Fatigue-Symptomatik,[6],Besserung
